Measurements from patent publication US20110293746A1, “Modulation of Gsk-3Beta and Method of Treating Proliferative Disorders” (Agency For Science, Technology and Research, priority 2004, published 2011).

Legend:
Type in all cases: cell-based, Human
RKO cells = experiment: FACS apoptosis (sub-G1); settings: p53 wild-type, with ADR
Experimental: (§1) Cell culture and drug treatments: Human colon cancer cell line HCT116 and its derived isogenic p53^−/−, Puma^−/−, Bax^−/− and p53-inducible DLD cell lines were kindly provided by Dr. Bert Vogelstein (Johns Hopkins University, MD). RKO and RKO/E6 cells were from ATCC. Cells were cultured in DMEM containing 10% FBS. All culture reagents and media were from Invitrogen. 5-Fluorouracil, Adriamycin, etoposide and lithium chloride were purchased from Sigma. GSK-3β specific small molecule inhibitor LY2119301 was a gift from Eli Lilly (Indianapolis) and SB-216763, SB-415283 were obtained from BIOMOL.
(§2) FACS analysis of DNA content and caspase-3 activity: Cells were harvested and fixed in 70% ethanol. Fixed cells were stained with propidium iodide (50 μg/ml) after treatment with RNase (100 μg/ml). The stained cells were analyzed for DNA content by fluorescence-activated cell sorting (FACS) in a FACScalibur™ (Becton Dickinson Instrument, San Jose, Calif.). Cell cycle fractions were quantified using the CellQues™ software (Becton Dickinson). To measure caspase-3 activity, cells were fixed with Cytofix/Cytoperm™ solution (BD PharMingen) as instructed, and then stained with FITC-conjugated rabbit anti-active caspase-3 monoclonal antibody (BD PharMingen). Quantification of cells positive for the caspase-3 detection was performed by flow cytometry.

RKO/E6 cells = experiment: FACS apoptosis (sub-G1); settings: p53-inactive, with ADR
Experimental: as §1, §2

HT29 = experiment: Apoptosis in p53 mutant colon cancer cell line; settings: data not shown
Experimental: as §2

SW480 = experiment: Apoptosis in p53 mutant colon cancer cell line; settings: data not shown
Experimental: as §2

[1] = system: HCT116 cells infected with Ad-p53; experiment: Apoptosis and immunoblot in cells infected with adenovirus expressing p53
Experimental: (§3) Western blotting, immunoprecipitation and microarray analysis: Cells were scraped, collected and lysed as described previously (Yu, Q., et al. Cancer Res, 62: 5743-5748, 2002). Briefly, cells were lysed with cell lysis buffer (0.3% NP40, 1 mM EDTA, 50 mM Tris-HCl (pH 7.4), 2 mM EGTA, 1% Triton X-100, […], 25 mM NaF, 1 mM Na3VO4, 2 mM AEBSF, 5 μg/ml aprotinin, 1 μg/ml leupeptin) for 30 minutes on ice, and the lysates were clarified by centrifugation at 12,000×g for 15 minutes at 4° C. Protein concentration was quantified (Bio-Rad, Hercules, Calif.) and protein samples (50 μg) were separated by SDS/PAGE and transferred onto Immobilon™ membranes (Millipore, Bedford, Mass.). Antibodies against the following proteins were used: p53 (DO-1), p21, PARP, GSK-α/β, α-Tubulin, and β-actin (Santa Cruz Biotechnology), Puma (Ab-1, Oncogene), Bax (Sigma), phosphor-(Ser9/21)-GSK-3α/β and Caspase-9 (Cell Signaling Technologies), phosphor-(Tyr216/279)-GSK-3α/β (Upstate Biotechnologies), cytochrome c (BD PharMingen). To detect Bax conformational change, cells were lysed in 1% Chaps buffer and the soluble fraction was immunoprecipitated with anti-Bax monoclonal antibody (6A7, BD, PharMingen), followed by immunoblotting with anti-Bax polyclonal antibody. Microarray analysis was performed as described (Kho, P. S., et al. J Biol Chem, 279: 21183-21192, 2004).
as §2
Adenoviral infections: Adenovirus Ad-LacZ and Ad-p53 were obtained from Dr. Shibin Zhou (Johns Hopkins University, Md.). Cells were grown to 50% confluence and infected with recombinant adenovirus as described (Yu, J., et al. Proc Natl Acad Sci USA, 96: 14517-14522, 1999). Twenty-four hours after the infection, cells were treated with drugs for the indicated times.

HCT116 Bax −/− cells [2] = experiment: FACS apoptosis and immunoblot
Experimental: as §1, §3, §2

HCT116 Puma −/− cells = experiment: FACS apoptosis and immunoblot
Experimental: as §1, §3, §2

LoVo cells = experiment: Apoptosis upon DNA damage; settings: p53 wild-type, no Bax protein; data not shown
Bax = Bax conformational activation (IP with 6A7 antibody, Western blot) in HCT116 p53 −/− cells; settings: same conditions
Experimental: as §3

HCT116 cells = experiment: Western blots of cytosolic fractions: cytochrome c release and caspase-9 processing; settings: after DNA damage (ADR or etoposide) in presence of LY2119301
Experimental: as §3, with “2004). […]” for “2004).”

HCT116 Bax −/− cells [3] = experiment: Mitochondrial membrane potential by JC-1 staining and FACS; settings: co-treated with LY2119301 and genotoxic treatments
Experimental: (§4) Measurement of mitochondrial permeability transition: Cells were harvested by centrifugation at 300×g at 4° C. for 5 min. Mitochondrial permeability transition was determined by staining the cells with JC-1 (BD PharMingen) according to the manufacturer's instructions. Mitochondrial permeability transition was quantified by flow cytometric determination of cells with decreased red fluorescence, i.e. with mitochondria displaying a lower membrane potential (ΔΨm). Data are given in percentage of cells with low ΔΨm.

HCT116 cells (Bax+/+) = experiment: as above; settings: co-treated with LY2119301 and genotoxic treatments
Experimental: as §4

[4] = LY2119301 with ADR or etoposide
[5] = co-treated with LY2119301 and ADR or etoposide, 24 h

Structure (SMILES): CN1CCN(c2ccc(NCCNc3ccc([N+](=O)[O-])c(N)n3)nc2-c2ccc(Cl)cc2Cl)C(=O)C1 [LY2119301]
- apoptotic effect on the p53 response (RKO cells): observed
- apoptotic effect on the p53 response (RKO/E6 cells): not
- apoptosis induction (HT29): not induced
- apoptosis induction (SW480): not induced
- Bax activation ([1]; IP-Western, p53 over-expression plus LY2119301): similarly seen
- apoptosis induced by enforced p53 expression ([1]; LY2119301 24 h): significantly increased
- ectopically expressed p53 protein levels ([1]; immunoblot): no effect
- p53 dependent transcription of p21 ([1]; immunoblot): no effect
- PARP cleavage (HCT116 Bax −/− cells [2]; [4]): not observed
- apoptosis (HCT116 Bax −/− cells [2]; [5]): completely refractory
- induction of p21 after ADR or etoposide (HCT116 Bax −/− cells [2]; immunoblot): similarly reduced
- p53 accumulation after ADR or etoposide (HCT116 Bax −/− cells [2]; immunoblot): similarly reduced
- PARP cleavage (HCT116 Puma −/− cells; [4]): evident
- apoptosis (HCT116 Puma −/− cells; [5]): marked apoptosis
- induction of p21 after ADR or etoposide (HCT116 Puma −/− cells; immunoblot): similarly reduced
- p53 accumulation after ADR or etoposide (HCT116 Puma −/− cells; immunoblot): similarly reduced
- apoptosis induced by LY2119301 upon DNA damage (LoVo cells): resistant
- Bax conformation (Bax): no detectable change
- caspase 9 processing (HCT116 cells): evident
- cytochrome c release (HCT116 cells): increased
- reduction of mitochondrial membrane potential (HCT116 Bax −/− cells [3]): not
- mitochondrial membrane potential (HCT116 cells (Bax+/+)): significant reduction
